Patent US10954225B2, “Selective NR2B antagonists” (Bristol-Myers Squibb Company, priority 2015, dated 2021)

Legend:
[1] = target: NR2B-subtype NMDA receptors (Rattus norvegicus (Rat), UniProt P35439+Q00960); test: Radioligand binding assay (3H Ro 25-6981 competition, rat forebrain membranes); conditions: 3H Ro 25-6981 (4 nM)
Description: Radioligand Binding Assay.
Binding experiments to determine binding to NR2B-subtype NMDA receptors were performed on forebrains of 8-10 weeks old male Sprague Dawley rats (Harlan, Netherlands) using ^3H Ro 25-6981 (Mutel V; Buchy D; Klingelschmidt A; Messer J; Bleuel Z; Kemp J A; Richards J G. Journal of Neurochemistry, 1998, 70(5):2147-2155. Rats were decapitated without anesthesia using a Guillotine (approved by animal ethics committee) and the harvested brains were snap-frozen and stored at −80° C. for 3-6 months for membrane preparation.
For membrane preparation, rat forebrains were thawed on ice for 20 minutes in homogenization buffer composed of 50 mM KH2PO4 (pH adjusted to 7.4 with KOH), 1 mM EDTA, 0.005% Triton X 100 and protease inhibitor cocktail (Sigma Aldrich). Thawed brains were homogenized using a Dounce homogenizer and centrifuged at 48000×g for 20 min. The pellet was resuspended in cold buffer and homogenized again using a Dounce homogenizer. Subsequently, the homogenate was aliquoted, snap-frozen and stored at −80° C. for not more than 3-4 months.
To perform the competition binding assay, thawed membrane homogenate was added to each well of a 96-well plate (20 μg/well). […] The filter plates were dried at 50° C. for 20 mins, incubated with microscint 20 for 10 minutes and finally, the counts were read on TopCount (Perkin Elmer).

[2] = target: brain-resident NR2B-subtype receptors (Mus musculus (Mouse), UniProt P35438+Q01097); test: Ex vivo occupancy assay; format: in vivo; conditions: animals after dosing; no dose stated
Chain of brain-resident NR2B-subtype receptors (Q01097 27-1482, other chains not shown): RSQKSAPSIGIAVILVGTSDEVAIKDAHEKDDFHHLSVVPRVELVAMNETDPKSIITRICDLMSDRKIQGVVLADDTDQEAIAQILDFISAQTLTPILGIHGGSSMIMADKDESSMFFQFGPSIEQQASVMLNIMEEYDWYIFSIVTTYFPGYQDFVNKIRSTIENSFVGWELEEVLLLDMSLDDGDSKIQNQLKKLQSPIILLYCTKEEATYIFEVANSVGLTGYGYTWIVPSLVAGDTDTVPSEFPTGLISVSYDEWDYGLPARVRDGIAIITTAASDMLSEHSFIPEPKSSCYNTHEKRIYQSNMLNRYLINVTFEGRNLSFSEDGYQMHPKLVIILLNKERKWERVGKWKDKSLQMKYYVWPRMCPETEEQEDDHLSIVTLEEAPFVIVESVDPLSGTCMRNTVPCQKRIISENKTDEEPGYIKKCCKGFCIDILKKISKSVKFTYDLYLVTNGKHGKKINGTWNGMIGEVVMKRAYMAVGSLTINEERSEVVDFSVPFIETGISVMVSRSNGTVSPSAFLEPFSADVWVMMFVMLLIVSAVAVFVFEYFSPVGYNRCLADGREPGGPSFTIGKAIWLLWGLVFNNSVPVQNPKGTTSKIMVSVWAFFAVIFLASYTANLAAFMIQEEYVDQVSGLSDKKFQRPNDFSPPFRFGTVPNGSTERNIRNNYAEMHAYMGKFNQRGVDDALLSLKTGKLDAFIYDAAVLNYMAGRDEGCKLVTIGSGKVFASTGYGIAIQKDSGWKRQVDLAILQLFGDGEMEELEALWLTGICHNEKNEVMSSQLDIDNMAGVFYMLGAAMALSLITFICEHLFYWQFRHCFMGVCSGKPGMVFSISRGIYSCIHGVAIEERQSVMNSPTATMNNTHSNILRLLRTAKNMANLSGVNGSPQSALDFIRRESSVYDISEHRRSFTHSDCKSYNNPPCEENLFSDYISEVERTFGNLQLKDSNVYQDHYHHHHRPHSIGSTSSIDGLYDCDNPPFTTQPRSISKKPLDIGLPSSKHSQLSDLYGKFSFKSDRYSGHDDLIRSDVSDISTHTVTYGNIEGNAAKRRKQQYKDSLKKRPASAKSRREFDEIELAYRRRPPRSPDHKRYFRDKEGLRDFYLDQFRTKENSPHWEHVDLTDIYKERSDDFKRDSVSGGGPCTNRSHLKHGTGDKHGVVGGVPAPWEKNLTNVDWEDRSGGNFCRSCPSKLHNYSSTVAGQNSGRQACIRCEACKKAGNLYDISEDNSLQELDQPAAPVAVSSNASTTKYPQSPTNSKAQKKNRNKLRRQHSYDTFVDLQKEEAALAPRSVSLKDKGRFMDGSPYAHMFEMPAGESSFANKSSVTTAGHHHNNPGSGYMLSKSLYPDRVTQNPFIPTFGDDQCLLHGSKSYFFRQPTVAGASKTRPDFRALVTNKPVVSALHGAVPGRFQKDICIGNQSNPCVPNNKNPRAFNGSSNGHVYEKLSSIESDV
Description: 7-9 weeks old male CD-1 mice were dosed intravenously in a vehicle consisting of 10% dimethylacetamide, 40% PEG-400, 30% hydroxypropyl betacyclodextrin, and 30% water with experimental compounds and the forebrains were harvested 15 minutes post-dosing by decapitation. The brain samples were immediately snap-frozen and stored at −80° C. On the following day, the dosed brain samples were thawed on ice for 15-20 minutes followed by homogenization using Polytron for 10 seconds in cold homogenization buffer composed of 50 mM KH2PO4 (pH adjusted to 7.4 with KOH), 1 mM EDTA, 0.005% Triton X 100 and protease inhibitor cocktail (Sigma Aldrich). The crude homogenates were further homogenized using a Dounce homogenizer and the homogenized membrane aliquots from all animals were flash-frozen and stored at −80° C. until further use. The whole homogenization process was performed on ice. For determining occupancy, the membrane homogenates were first thawed on ice and then needle-homogenized using a 25 gauge needle. The homogenized membrane (6.4 mg/ml) was added to a 96-well plate followed by addition of ^3H Ro 25-6981 (6 nM). […] The filter plates were dried at 50° C. for 20 mins, incubated with microscint 20 for 10 minutes and read on TopCount (Perkin Elmer). […] Non-specific binding was determined using 10 μM Ro 25-6981 added to the wells containing membrane homogenates from vehicle-dosed animals. […]

[3] = system: mice; test: Mouse Forced Swim Test (mFST); format: in vivo; conditions: 1 mg/Kg i.v., 15 min before swim session
Description: Mouse Forced Swim Test (mFST).
Forced Swim Test (FST) is an animal model used to assess antidepressant compounds in preclinical studies. The FST was performed similar to the method of Porsolt et al. with modifications (Porsolt R D, Bertin A, Jalfre M. Behavioral despair in mice: a primary screening test for antidepressants. Arch Int Pharmacodyn Ther 1977; 229:327-36). In this paradigm, mice are forced to swim in an inescapable cylinder filled with water. Under these conditions, mice will initially try to escape and eventually develop immobility behavior; this behavior is interpreted as a passive stress-coping strategy or depression-like behavior. […] The duration of immobility was evaluated during the total 6 min of the test and expressed as duration (sec) of immobility. […] All testing sessions were recorded with a video camera (Sony Handicam, Model: DCR-HC38E; PAL) and scoring was done using the Forced Swim Scan, Version 2.0 software (Clever Systems Inc., Reston, Va., USA; see Hayashi E, Shimamura M, Kuratani K, Kinoshita M, Hara H. Automated experimental system capturing three behavioral components during murine forced swim test. Life Sci. 2011 Feb. 28; 88(9-10):411-7 and Yuan P, Tragon T, Xia M, Leclair C A, Skoumbourdis A P, Zheng W, Thomas C J, Huang R, Austin C P, Chen G, Guitart X. Phosphodiesterase 4 inhibitors enhance sexual pleasure-seeking activity in rodents. […]

Chain of NR2B-subtype NMDA receptors (Q00960 27-1482, other chains not shown): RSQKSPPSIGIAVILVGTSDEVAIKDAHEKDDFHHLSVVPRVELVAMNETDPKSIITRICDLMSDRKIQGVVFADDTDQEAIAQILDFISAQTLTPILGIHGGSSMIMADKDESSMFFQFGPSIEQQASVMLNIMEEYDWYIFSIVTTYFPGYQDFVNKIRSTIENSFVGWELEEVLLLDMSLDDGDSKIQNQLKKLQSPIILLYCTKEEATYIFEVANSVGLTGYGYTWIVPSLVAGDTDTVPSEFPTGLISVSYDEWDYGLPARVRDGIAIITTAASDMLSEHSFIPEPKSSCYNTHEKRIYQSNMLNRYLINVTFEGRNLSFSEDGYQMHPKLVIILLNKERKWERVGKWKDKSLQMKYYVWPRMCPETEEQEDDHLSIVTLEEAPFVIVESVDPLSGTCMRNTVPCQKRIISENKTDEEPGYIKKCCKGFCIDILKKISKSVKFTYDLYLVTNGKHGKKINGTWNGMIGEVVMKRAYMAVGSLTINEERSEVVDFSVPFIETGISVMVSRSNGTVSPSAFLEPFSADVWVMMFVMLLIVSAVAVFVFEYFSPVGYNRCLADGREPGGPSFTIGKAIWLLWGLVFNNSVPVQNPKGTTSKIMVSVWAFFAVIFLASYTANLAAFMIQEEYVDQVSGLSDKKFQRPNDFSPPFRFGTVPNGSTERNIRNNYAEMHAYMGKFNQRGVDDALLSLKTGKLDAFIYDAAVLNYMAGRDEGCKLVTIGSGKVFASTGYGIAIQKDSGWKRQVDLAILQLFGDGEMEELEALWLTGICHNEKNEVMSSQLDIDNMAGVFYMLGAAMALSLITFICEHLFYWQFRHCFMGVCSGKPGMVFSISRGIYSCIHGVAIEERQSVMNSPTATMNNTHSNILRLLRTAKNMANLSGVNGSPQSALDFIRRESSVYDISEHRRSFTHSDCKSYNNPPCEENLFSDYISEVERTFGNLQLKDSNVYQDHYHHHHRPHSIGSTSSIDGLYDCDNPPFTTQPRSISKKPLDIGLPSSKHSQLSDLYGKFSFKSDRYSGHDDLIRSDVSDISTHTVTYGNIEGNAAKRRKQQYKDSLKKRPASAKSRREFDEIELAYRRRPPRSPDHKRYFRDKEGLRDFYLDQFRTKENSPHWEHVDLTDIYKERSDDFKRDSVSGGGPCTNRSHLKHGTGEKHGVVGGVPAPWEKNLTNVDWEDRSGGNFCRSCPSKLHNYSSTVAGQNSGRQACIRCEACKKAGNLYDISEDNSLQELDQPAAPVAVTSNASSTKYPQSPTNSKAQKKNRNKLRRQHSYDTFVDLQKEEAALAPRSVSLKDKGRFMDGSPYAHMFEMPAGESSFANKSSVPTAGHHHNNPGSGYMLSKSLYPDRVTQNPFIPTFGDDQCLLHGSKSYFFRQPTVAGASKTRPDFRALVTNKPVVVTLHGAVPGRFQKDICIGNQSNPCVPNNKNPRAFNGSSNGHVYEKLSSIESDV

SMILES | Ki [1] [nM] | other results
O=C1C(N2CCC(c3ccc(O)cn3)CC2)CON1Cc1ccc(F)cc1 (racemic) [Example 3, 2-(4-fluorobenzyl)-4-(4-(5-hydroxypyridin-2-yl)piperidin-1-yl)isoxazolidin-3-one] | 15.1 | 
Cc1ccc(CN2OCCC(N3CCC(c4ccc(O)cc4)CC3)C2=O)cc1 (racemic) [Example 4, 4-(4-(4-hydroxyphenyl)piperidin-1-yl)-2-(4-methylbenzyl)-1,2-oxazinan-3-one] | 5.49 | 
Cc1ccc(CN2OCC(N3CCC(c4ccc(O)cc4)CC3)C2=O)cc1 (single isomer, unassigned) [2,P-2, 4-(4-(4-hydroxyphenyl)piperidin-1-yl)-2-(4-methylbenzyl)isoxazolidin-3-one] |  | occupancy of brain-resident NR2B-subtype receptors (in words) [2]: occupies brain-resident NR2B-subtype receptors
Cc1ccc(CN2OCC(N3CCN(c4ccc(O)cn4)CC3)C2=O)cc1 (single isomer, unassigned) [10,P-1, 4-(4-(5-hydroxypyridin-2-yl)piperazin-1-yl)-2-(4-methylbenzyl)isoxazolidin-3-one] |  | immobility time [3]: statistically significant decrease in immobility time
